Test results from US20240041042A1, “1-(PYRIDYL)-5-AZINYLPYRAZOLE DERIVATIVES, AND THEIR USE FOR CONTROL OF UNDESIRED PLANT GROWTH” (Bayer Aktiengesellschaft, priority 2020, published 2024).

Experiments:
Assay type in all cases: in vivo
[1] = system: Alopecurus myosuroides (ALOMY); experiment: Pre-emergence herbicidal action against ALOMY; conditions: scored visually after about 3 weeks, 100% = plants have died
Outline: (§1)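 Pre-emergence soil-surface spray of compound, formulated as wettable powder or emulsion concentrate, in aqueous suspension or emulsion with 0.5% additive (600 l/ha; rate 320 g/ha or less). Activity rated visually after roughly 3 weeks in the greenhouse as a percentage of untreated controls, 0% meaning no difference.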

[2] = system: Amaranthus retroflexus (AMARE); experiment: Pre-emergence herbicidal action against AMARE; conditions: visual scoring after about 3 weeks vs untreated controls
Outline: as §1

[3] = system: Lolium rigidum (LOLRI); experiment: Pre-emergence herbicidal action against LOLRI
Outline: as §1

[4] = system: Verconica persica (VERPE); experiment: Post-emergence herbicidal action against VERPE
Outline: (§2)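 Rates were 320 g/ha or below, applied as aqueous WP/EC spray with 0.5% additive (600 l/ha) onto one-leaf-stage plants. About 3 weeks later in the greenhouse, damage was scored visually against untreated plants on a 0–100% scale, where 100% means plants died.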

[5] = system: Pharbitis purpurea (PHBPU); experiment: Pre-emergence herbicidal action against PHBPU
Excerpt: Seeds of monocotyledonous and dicotyledonous weed plants and crop plants are placed in plastic or organic planting pots and covered with soil. The compounds of the invention, formulated in the form of wettable powders (WP) or as emulsion concentrates (EC), are then applied to the surface of the covering soil as aqueous suspension or emulsion with addition of 0.5% additive at a water application rate equivalent to 600 l/ha. After the treatment, the pots are placed in a greenhouse and kept under good growth conditions for the trial plants. After about 3 weeks, the effect of the preparations is scored visually in comparison with untreated controls as percentages. For example, 100% activity=the plants have died, 0% activity=like control plants.
Tables A1 to A13 below show the effects of selected compounds of the general formula (I) on various harmful plants and at an application rate corresponding to 320 g/ha or lower, which were obtained by the experimental procedure mentioned above. The appendices “a”, “b” and “c” give differentiation by dosage used with otherwise the same harmful plants tested.

[6] = system: Lolium rigidum (LOLRI); experiment: Post-emergence herbicidal action against LOLRI; conditions: dosage 320 g/ha
Outline: as §2

[7] = system: Alopecurus myosuroides (ALOMY); experiment: Post-emergence herbicidal action against ALOMY; conditions: visual rating about 3 weeks after treatment vs untreated controls (100% = plants have died, 0% = like control plants)
Outline: as §2

[8] = system: Matricaria inodora (MATIN); experiment: Pre-emergence herbicidal action against MATIN
Outline: as §1

[9] = system: Oryza sativa (ORYSA); conditions: crop plant compatibility, 80 g/ha, effect in comparison to untreated controls
Outline: (§3)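 Foliar application at the one-leaf stage: WP/EC formulation, 0.5% additive, 600 l/ha water. Greenhouse-grown in sandy loam. Endpoint is visual % injury relative to untreated controls at about 3 weeks.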

[10] = system: Setaria viridis (SETVI); experiment: Pre-emergence herbicidal action against SETVI
Outline: as §1

[11] = system: Abutilon theophrasti (ABUTH); experiment: Post-emergence herbicidal action against ABUTH; conditions: 320 g/ha, visual rating about 3 weeks after treatment vs untreated controls (100% = plants have died, 0% = like control plants)
Outline: as §2

[12] = system: Pharbitis purpurea (PHBPU); experiment: Post-emergence herbicidal action against PHBPU
Outline: as §2

[13] = system: Viola tricolor (VIOTR); experiment: Pre-emergence herbicidal action against VIOTR
Outline: as §1

[14] = system: Matricaria inodora (MATIN); experiment: Post-emergence herbicidal action against MATIN
Description: Seeds of monocotyledonous and dicotyledonous weeds and crop plants are placed in sandy loam in plastic or organic planting pots, covered with soil and cultivated in a greenhouse under controlled growth conditions. 2 to 3 weeks after sowing, the test plants are treated at the one-leaf stage. The compounds of the invention, formulated in the form of wettable powders (WP) or as emulsion concentrates (EC), are then sprayed onto the green parts of the plants as aqueous suspension or emulsion with addition of 0.5% additive at a water application rate of 600 l/ha (converted). After the test plants have been kept in the greenhouse under optimum growth conditions for about 3 weeks, the activity of the preparations is rated visually in comparison to untreated controls. For example, 100% activity=the plants have died, 0% activity=like control plants.
Tables B1 to B13 below show the effects of selected compounds of the general formula (I) according to Table 1 on various harmful plants and at an application rate corresponding to 320 g/ha or lower, which were obtained by the experimental procedure mentioned above. The appendices “a”, “b” and “c” give differentiation by dosage used with otherwise the same harmful plants tested.

[15] = system: Amaranthus retroflexus (AMARE); experiment: Post-emergence herbicidal action against AMARE
Outline: as §2

[16] = system: Echinochloa crus-galli (ECHCG); experiment: Post-emergence herbicidal action against ECHCG
Outline: as §2

[17] = system: Polygonum convolvulus (POLCO); experiment: Pre-emergence herbicidal action against POLCO
Outline: as §1

[18] = system: Setaria viridis (SETVI); experiment: Post-emergence herbicidal action against SETVI
Outline: as §2

[19] = system: Echinochloa crus-galli (ECHCG); experiment: Pre-emergence herbicidal action against ECHCG
Outline: as §1

[20] = system: Verconica persica (VERPE); experiment: Pre-emergence herbicidal action against VERPE; conditions: dosage 320 g/ha
Outline: as §1

[21] = system: Polygonum convolvulus (POLCO); experiment: Post-emergence herbicidal action against POLCO
Outline: as §2

[22] = system: Zea mays (ZEAMX); conditions: crop plant compatibility, 80 g/ha, effect vs untreated controls
Outline: as §3

[23] = system: Viola tricolor (VIOTR); experiment: Post-emergence herbicidal action against VIOTR
Outline: as §2

[24] = system: Avena fatua (AVEFA); experiment: Post-emergence herbicidal action against AVEFA; conditions: visual rating about 3 weeks after treatment
Outline: as §2

[25] = system: Avena fatua (AVEFA); experiment: Pre-emergence herbicidal action against AVEFA; conditions: visual scoring after about 3 weeks vs untreated controls
Outline: as §1

[26] = 320 g/ha, visual rating about 3 weeks after treatment
[27] = 80 g/ha, visual rating about 3 weeks after treatment vs untreated controls (100% = plants have died, 0% = like control plants)

| Compound | Pre-emergence action against ALOMY ([1]; 80 g/ha) [%] | Pre-emergence action against ALOMY ([1]; 320 g/ha) [%] | Pre-emergence action against AMARE in % ([2]; 80 g/ha) [%] | Pre-emergence action against AMARE in % ([2]; 320 g/ha) [%] | Pre-emergence action against LOLRI in % ([3]; dosage 320 g/ha) [%] | Post-emergence action against VERPE in % ([4]; 320 g/ha, VERPE) [%] | Pre-emergence action against PHBPU in % ([5]; dosage 320 g/ha) [%] | Post-emergence action against LOLRI in % [6] [%] | Post-emergence action against ALOMY in % ([7]; 320 g/ha) [%] | Pre-emergence action against MATIN in % ([8]; dosage 320 g/ha) [%] | Post-emergence action against ORYSA in % [9] [%] | Pre-emergence action against SETVI in % ([10]; dosage 320 g/ha) [%] | Post-emergence action against PHBPU in % ([12]; dosage 320 g/ha) [%] | Pre-emergence action against VIOTR in % ([13]; 320 g/ha, Viola tricolor) [%] | Pre-emergence action against VIOTR in % ([13]; dosage 80 g/ha) [%] | Post-emergence action against MATIN in % ([14]; dosage 320 g/ha) [%] | Post-emergence action against AMARE in % [15, 26] [%] | Post-emergence action against ECHCG in % ([16]; dosage 320 g/ha) [%] | Post-emergence action against SETVI in % ([18]; dosage 320 g/ha) [%] | Pre-emergence action against ECHCG in % ([19]; dosage 320 g/ha) [%] | also measured |
| --- | --- | --- | --- | --- | --- | --- | --- | --- | --- | --- | --- | --- | --- | --- | --- | --- | --- | --- | --- | --- | --- |
| COC(=O)COc1nn(-c2nc(F)ccc2F)c(-c2cncc(F)c2)c1Br [Example I-210] | 80 | 90 | 80 | 100 | 80 | 90 | 90 | 80 | 90 | 90 | 10 | 100 | 100 | 100 | 90 | 80 | 80 | 80 | 80 | 100 | Post-emergence action against VERPE in % ([4]; dosage 80 g/ha): 90%; Pre-emergence action against PHBPU in % ([5]; dosage 80 g/ha): 90%; Pre-emergence action against MATIN in % ([8]; dosage 80 g/ha): 90%; Pre-emergence action against SETVI in % ([10]; dosage 80 g/ha): 90%; Post-emergence action against ABUTH in % [11]: 80%; Post-emergence action against PHBPU in % ([12]; dosage 80 g/ha): 90%; Post-emergence action against MATIN in % ([14]; dosage 80 g/ha): 80%; Post-emergence action against ECHCG in % ([16]; dosage 80 g/ha): 80%; Pre-emergence action against POLCO in % ([17]; dosage 80 g/ha): 90%; Pre-emergence action against POLCO in % ([17]; dosage 320 g/ha): 100%; Post-emergence action against SETVI in % ([18]; dosage 80 g/ha): 80%; Pre-emergence action against ECHCG in % ([19]; dosage 80 g/ha): 90%; Pre-emergence action against VERPE in % [20]: 100% |
| O=C(O)CSc1nn(-c2ccccn2)c(-c2cncc(F)c2)c1C1CC1 [Example I-153] |  | 90 |  | 100 | 80 |  | 80 |  | 80 | 80 | 0 | 90 | 90 | 100 | 90 | 80 | 90 | 90 | 80 | 100 | Post-emergence action against POLCO in % ([21]; dosage 320 g/ha): 80%; Post-emergence action against ZEAMX in % [22]: 10%; Post-emergence action against VIOTR in % ([23]; 320 g/ha): 80%; Post-emergence action against PHBPU in % ([12]; dosage 80 g/ha): 80%; Post-emergence action against AMARE in % [15, 27]: 90%; Post-emergence action against AVEFA in % ([24]; 80 g/ha): 80%; Post-emergence action against AVEFA in % ([24]; 320 g/ha): 90%; Post-emergence action against ECHCG in % ([16]; dosage 80 g/ha): 80%; Pre-emergence action against ECHCG in % ([19]; dosage 80 g/ha): 80% |
| CC(Oc1nn(-c2ccccn2)c(-c2ccc(F)nc2)c1C(F)(F)F)C(=O)O (stereo not shown) [Example I-94] | 80 | 100 | 80 | 100 | 100 | 90 |  | 100 | 100 | 100 | 20 | 100 | 80 | 100 | 100 | 80 | 90 | 90 | 90 | 80 | Post-emergence action against POLCO in % ([21]; dosage 80 g/ha): 80%; Post-emergence action against POLCO in % ([21]; dosage 320 g/ha): 90%; Pre-emergence action against LOLRI in % ([3]; dosage 80 g/ha): 100%; Post-emergence action against ALOMY in % ([7]; 80 g/ha): 80%; Post-emergence action against ZEAMX in % [22]: 20%; Post-emergence action against ABUTH in % [11]: 80%; Post-emergence action against VIOTR in % ([23]; 80 g/ha): 90%; Post-emergence action against VIOTR in % ([23]; 320 g/ha): 90%; Pre-emergence action against AVEFA in % ([25]; 80 g/ha): 80%; Pre-emergence action against AVEFA in % ([25]; 320 g/ha): 90%; Post-emergence action against AMARE in % [15, 27]: 90%; Post-emergence action against AVEFA in % ([24]; 80 g/ha): 80%; Post-emergence action against AVEFA in % ([24]; 320 g/ha): 100%; Pre-emergence action against POLCO in % ([17]; dosage 80 g/ha): 90%; Pre-emergence action against POLCO in % ([17]; dosage 320 g/ha): 90%; Post-emergence action against SETVI in % ([18]; dosage 80 g/ha): 80%; Pre-emergence action against VERPE in % [20]: 90% |
